The test system of series [1] is HeLa cells. As to the kind of experiment: Cytotoxicity test (damage to intracellular DNA, anti-γ-H2AX staining). The class given is cell-based, human. To be noted: HeLa cells incubated 2 days with peptide, fragmented double-stranded DNA stained with anti-γ-H2AX antibody, FIG. 8. The method, then: Testing of the peptide of the present invention for damage to intracellular DNA was performed in the following manner. • (Day 1) HeLa cells were seeded onto a dish at a concentration of 5×10^4 cells/dish, and cultured in 10% FCS/DMEM medium (2 mL). • (Day 2) Recombinant Vpr (protein derived from Vpr), C45D18 (Peptide 9), and LR20 (Peptide 1) were added, and the cells were incubated for 2 days. • (Day 4) The following sequence of treatments was performed on the cells: The dish was washed with PBS→the cells were fixed with 4% paraformaldehyde→after incubation for 20 min on ice, the cells were washed with PBS→200 μL of 1% Triton X-100/2M HCl solution was added, and the cells were incubated at room temperature for 30 min→blocking with 200 μL of 1% BSA was performed at room temperature for 1 h→anti-γ-H2AX antibody solution was added, and the fragmented double-stranded DNA was stained (37° C. for 30 min)→cy3-anti-mouse IgG solution was added, and the cells were incubated at room temperature for 30 min→the nuclei were stained with DAPI/PBST (3 min)→the cells were mounted on glass slides.
In FIG. 8 the stained parts indicate fragmented DNA.

The conditions of series [2]: cited from earlier work.
For series [3], the system named is HeLa cells. As to the kind of experiment: Cellular and nuclear translocation capability of magnetic particles in HeLa cells. The class given is cell-based, human. To be noted: peptide-CMDM conjugates, iron 0.7 mg/mL, thymidine-arrested HeLa cells, 18 h exposure, T2 relaxation time by NMR, FIG. 1.
Text: With respect to the amount of cellular and nuclear translocation of the aforementioned peptide-magnetic nanoparticle conjugate, the translocation capability of the peptide of the present invention can be compared with that of a previous PTD by adding the conjugate to cultured cells, separating and recovering the cytoplasm and nuclei after letting the culture stand for a set period of time, measuring the T2 relaxation time by NMR, and measuring the amount of magnetic nanoparticles taken up by the cells.
After 18 h of exposure, the cells were washed with PBS and recovered, and centrifugal separation (2000 rpm for 5 min) was performed to precipitate the cells into pellets. After the cells were resuspended by adding 700 mL of PBS, they were lysed using a Dounce homogenizer and centrifuged (2000 rpm for 5 min) into pellets. […] Then the T2 relaxation time of each resulting fraction was measured by NMR. Concurrently, the protein concentration of each fraction was measured by BSA protein assay.
Because a fixed relation is established between T2 relaxation time and magnetic substance concentration, the magnetic substance concentration can be calculated by assuming that the T2 relaxation of the sample is the same before and after the test. The calculated concentration was corrected further using the protein concentration.

Ends that are not written are not given here.

For `CC[C@H](C)[C@H](NC(=O)[C@H](CCCNC(=N)N)NC(=O)[C@H](CO)NC(=O)[C@H](Cc1c[nH]cn1)NC(=O)[C@H](CCCNC(=N)N)NC(=O)[C@H](CS)NC(=O)CNC(=O)[C@@H](NC(=O)[C@H](CCCNC(=N)N)NC(=O)[C@H](Cc1ccccc1)NC(=O)[C@H](Cc1c[nH]cn1)NC(=O)[C@@H](NC(=O)[C@H](Cc1ccccc1)NC(=O)[C@H](CC(C)C)NC(=O)[C@H](CC(C)C)NC(=O)[C@H](CCC(N)=O)NC(=O)[C@H](CCC(N)=O)NC(=O)[C@H](CC(C)C)NC(=O)[C@@H](NC(=O)[C@@H](N)CCCNC(=N)N)[C@@H](C)CC)[C@@H](C)CC)[C@@H](C)CC)C(=O)O` [Peptide 1, RILQQLLFIHFRIGCRHSRI], the “DNA damage (cytotoxicity)” value in series [1] was “extent of DNA damage is decreased”.
As to “DTWAGVEAIIRILQQLLFIHFRIGCRH [Peptide 9]”, in series [2] (Taguchi et al., Biochem. Biophys. Res. Comm., 320, 18 (2004)), the “translocation capability relative to a protein originating in Vpr” value is recorded as “stronger translocation capability than a protein originating in Vpr”. The “translocation capability of conjugates with enzymatic proteins relative to the Tat peptide” value in series [2] (conjugates of C45D18 and enzymatic proteins, into a cell and into a nucleus, Taguchi et al. (2004)) is “greater than that of the Tat peptide”.
As to “Peptide 12: PTD peptide discovered during research to enhance the function of the Tat peptide (Mukai et al.), synthesized with additional GGC (THRLPRRRRRR; YM-3 peptide)”, in series [2] (Mukai et al., Biol. Pharm. Bull. 29(8), 1570 (2006)), the “cellular translocation capability relative to the Tat peptide” value is listed as “approximately three times higher than that of the Tat peptide”.
For “R I L Q Q L L F I H F R I G C [Peptide 3]”, in series [3], the “cellular and nuclear translocation capability” value was “best cellular and nuclear translocation capability”.
Turning to “RIFIHFRIGC [Peptide 4, R I F I H F R I G C]”, the “DNA damage (cytotoxicity)” value in series [1] is given as “no damage to DNA was seen”.
